# No end group written: not given here.
# Tested on: Male Japanese white rabbits
# Assay: Schirmer test paper method: amount of lacrimal fluid after instillation
# Type: in vivo, rabbit
# Procedure: The Schirmer test paper method, which is used for measurement of an amount of a human lacrimal fluid, is one method of measuring a change in an amount of a lacrimal fluid of a normal animal in instilling a drug. In the present invention, an amount of a lacrimal fluid in instilling the natriuretic peptide was measured by using the Schirmer test paper method, and an effect of the natriuretic peptide on a rate of lacrimal secretion was studied.
# Male Japanese white rabbits, body weight; 1.8 to 2.2 kg, were used for the experiment.
# The natriuretic peptide (0.56 mg) was dissolved in sterile purified water to prepare a 0.1% solution just before using. This solution is referred to as a solution of a test drug.
# The solution of the test drug (50 μl) was instilled into a left eye once. […]
# Amounts of the lacrimal fluid were measured using Schirmer test paper with respect to the eye to which the drug was administered and the eye to which no drug was administered before administering the drug and after a prescribed period of time from the instillation. […] One minute later, length of a wet portion (Schirmer value, mm) of the test paper was measured from the fold. […]
# The action of the solution of the test drug on the rate of the lacrimal secretion at a time of T hours after the instillation is represented by the increment of the lacrimal fluid (mm) determined by the following equation. […]
substance,measurement,setting,value
"Human CNP-22: C-type natriuretic peptide (human) consisting of 22 amino acids; purchased from Peptide Research Institute (GLSKGCFGLKLDRIGSMSGLGC; ends and bridges not checked; cysteine pairing not given here; UniProt P23582 105-126, looked up)",Increment of lacrimal fluid (mm),"one hour after administering drug, 0.1% solution, 50 μl instilled once into left eye, vehicle-corrected Schirmer value, average of six samples per group",+1.33 mm
same,effect of promoting the lacrimal secretion,"rabbits, instillation, result in words",excellent effects of promoting the lacrimal secretion

# Reference: patent publication US6833358B1, “Lacrimal secretion promoters or eye drops for treating keratoconjunctival failure containing as the active ingredient natriuretic peptides” (Santen Pharmaceutical Co., Ltd., priority 1998, dated 2004)
